Test results as given in patent US10080774B2, “Oncolytic adenovirus armed with therapeutic genes” (priority 2002, dated 2018).
Converted amounts (≈) assume the structure as drawn.

Tests used:
CAM = experiment: Angiogenesis in vivo, CAM model; parameters: species or system chicken; conditions: 72 h after treatment
Procedure: Fertilized chicken eggs (SPAFAS; Charles River Lab., Wilmington, Mass.) will be incubated at 37° C. at 55% humidity for 9 days. An artificial air sac will be created over a region containing small blood vessels in the CAM as described (Brooks et al., 1999). A small window will be cut in the shell after removing 3 ml of albumen. Filter disks (6 mm in diameter) will be coated with cortisone acetate in absolute ethanol (3 mg/mL). The CAM will be locally treated with filter disks saturated with a solution containing bFGF (50 ng/disk; R&D Systems, Minneapolis, Minn.) and VEGF121/rGel (at 1 or 10 nM), rGel (at 1 or 10 nM), or buffer (PBS). The filter will be placed on the CAM in a region with the lowest density of blood vessels, and in the vicinity, as reference, of a large vessel. Angiogenesis will be monitored by photography 3 days after treatment. Images will be captured using an Olympus stereomicroscope (SZ×12) and Spot™ Basic software (Diagnostic Instruments, Inc.). The relative vascular area will be determined by measuring the area taken up by blood vessels. […] The number of blood vessel branch points will be quantify by two researchers, and compared to the treatment controls (Brooks et al., 1999).
Ang-2 inhibits angiogenesis in vivo (CAM model). […] Vascular responses were assessed 72 h later.

Tie2 = Tie2 (Homo sapiens, UniProt Q02763); experiment: Tie2 phosphorylation, immunoprecipitation; type: cell-based; conditions: U-87 MG
Procedure: To explore the regulation of Tie2 signaling by Angs in U-87 MG cells, Tie2 was immunoprecipitated from membrane fractions of U-87 MG cells treated with rAng1 (500 ng/ml) for 10 min, and phosphorylation of Tie2 was addressed using anti-phosphotyrosine antibody.

HU-VEC-C = experiment: Tube formation (vascular-like structures) assay; type: cell-based, human; conditions: 400-800 ng/ML, 18 h
Procedure: This assay will be performed using an in vitro angiogenesis kit (Chemicon, Temecula, Calif.) according to the manufacturer's instructions. Wells in a 96-well plate will be coated with ECMatrix solution, and 5×10^3 cells will be plated in triplicate wells in a volume of 50 μl of EGM (Clonetics Corp.) containing 2% FBS. The cells will be incubated for 18 h at 37° C., and tube formation will be evaluated by phase-contract microscopy. To determine the viability of cells in these assays, cells will be stained with Hoechst 33342 (5 μg/ml, Sigma) and propidium iodide (2.5 μg/ml, Sigma) for 5 min at 37° C. and analyzed by fluorescence microscopy.
These studies were performed to elucidate the role of Ang-2 role in the process of angiogenesis.

U-87 MG xenograft = experiment: Survival with antiangiogenic compounds, glioma xenograft mouse model; type: in vivo, athymic mice; conditions: P>0.5 logrank
Procedure: Testing the effect of antiangiogenic compounds on the survival of human glioma xenograft mouse model. Comparative survival analysis of the anticancer effect of different antiangiogenic treatments have been performed using the U-87 MG xenograft mouse model). PTK787/ZK 222584 was evaluated as a VEGFR inhibitor (Thomas et al., 2003); and imatinib/Glivec as a potent PDGFRβ inhibitor (Manley et al., 2002). Briefly, human glioma cells (5×10^5 U-87 MG) were engrafted into the caudate nucleus of athymic mice using a guide-screw system as previously described (Fueyo et al., 2003). […] Neither group treatment had long-term survivors.

U251 cells = experiment: Cell mixing experiments, Tc99O4 uptake after Δ24-NIS infection; type: cell-based, human; conditions: U251 infected with Δ24-NIS
Procedure: Cells incubated with virus for 1.5 h then washed extensively and mixed at different percentages with uninfected U251 cells. Uptake assays were then performed at 48 h and values are given as fold increase (ratios) of Tc^99O4 within the cells compared to control cells.
U251MG and U87MG glioma cell lines are transiently transfected, then incubated with ^99mTcO4. These in vitro techniques are modifications of an assay developed by Petrich et al. (2002). Briefly, cells are plated into 24-well plates and allowed to achieve 90% confluence. Various titers of Δ24-NIS are added, incubating and infecting the cells for 2 h. The cells are then washed, and the assay performed at 24, 48, and 72 h. The cells are pre-incubated at 37° C. for 30 min in 1 ml of HEPES-buffered Hanks balanced salt solution (bHBSS). […] Cellular radioactivity is released with 1 ml ice-cold 100% ethanol for 20 min, and counted in a cross-calibrated gamma counter. Protein content of the 6 wells per cell line are determined using a BCA assay kit.
Because of the concern that an oncolytic virus could destroy the cells expressing the NIS transgene and blunt the ability to concentrate-adequate amounts of radionuclide, a study were performed to determine the percentage of cells required to obtain significant concentrations of isotope. […] The result is shown in FIG. 11 and is expressed as fold increase (ratios) over control cells.

EGFRvIII = target: T1, EGFRvIII (Homo sapiens, UniProt P00533, DELINS30-297G); experiment: Membrane fluorescence staining with anti-EGFRvIII peptide-FITC, flow cytometry; type: binding; conditions: 1 μM, 30 min
T1 construct: expressed in transfected cells; host or cells: U-87 MG stably transfected with mutant EGFR (U87MG.ΔEGFR; Nishikawa et al., 1994)
Procedure: Briefly, the inventors performed membrane fluorescence staining of single-cell suspensions after incubating U-87 MG, U87.wtEGFR, and U-87.ΔEGFRvIII (Nishikawa et al., 1994) with the anti-EGFRvIII peptide (PEPCH1)-FITC (1 μM) (Campa et al., 2000) for 30 min. The cells were then washed twice with PBS and then analyzed for fluorescence with an EPICS XL-MCL flow cytometer (Beckman-Coulter Inc., Miami, Fla.) using a 488 nm argon laser for excitation. Fluorescence was detected with a 520 nm band-pass filter, and all cytometric data was analyzed with the System II software (Beckman-Coulter Inc.). Data are shown as the percentages of FICT-positive cells (empty graph) compared to mock-treated cells (solid graphs) from a representative experiment.

[1] = test system: hyCD stable-transfected U251MG cells; experiment: Cell viability assay, 5-FC dose response; type: cell-based, human
Procedure: (§1) Note the shift to the left of the IC50 curve for the hyCD stable-transfected U251MG cells in the presence of 5-FC. IC50 values for both cultures are indicated.
(§2) U251MG and U87MG cell lines were grown to 95% monolayer confluence. The cells were trypsinized and harvested with 0.25% trypsin/EDTA, plated in 6-well tissue culture plates, and allowed to adhere overnight at 37° C. in 5% CO2 humidified incubators. 5-FU or 5-FC in serial 0.5-log concentrations in 100 μl aliquots was added directly to the cells to achieve final concentrations, as previously described (Miller, 2002). Cells were incubated at 37° C. for 5 days and cell viability by cellular respiration was determined using 3-(4,5-methylthiazole-2-yl)-5-(3-carboxymethoxy-phenyl)-2-(4-sulfonyl)-2H-tetrazolium) (Promega, Madison, Wis.) according to the manufacturer's protocol. The cell survival fraction was measured at each drug concentration as the ratio of absorbance at 490 nm relative to untreated cells. This calculation was normalized for background absorbance of the culture medium alone. The cell survival fraction was plotted against the logarithm of the drug concentration, and IC50 values were calculated using a sigmoidal dose-response curve with variable slope in GraphPad Prism 3.01.

parental U251MG cells = experiment: Cell viability assay, 5-FC dose response; type: cell-based; conditions: Homo sapiens, U-251, 120 h, 5 days
Procedure: as §1, §2

[2] = Organ uptake after injection of W/Re-188 generator eluant; type: in vivo; conditions: 100 μCi
Procedure: Urine and later fecal accumulation (at 24 hours) is also observed.
Whole-mount sections of animals were prepared after tail vein injection of ^188Re elutant produced by a Rhenium generator at 100 μCi, which provides additional conformation of the anatomic localization of the images provided by gamma camera assessment. […] The bladder where the isotope is being eliminated is also visualized. Individual organs can be harvested and isotope counts can be determined per gram of tissue as a quantitative measure of radionuclide uptake.

[3] = cited from earlier work

Tie2, sequence (Q02763 23-1124): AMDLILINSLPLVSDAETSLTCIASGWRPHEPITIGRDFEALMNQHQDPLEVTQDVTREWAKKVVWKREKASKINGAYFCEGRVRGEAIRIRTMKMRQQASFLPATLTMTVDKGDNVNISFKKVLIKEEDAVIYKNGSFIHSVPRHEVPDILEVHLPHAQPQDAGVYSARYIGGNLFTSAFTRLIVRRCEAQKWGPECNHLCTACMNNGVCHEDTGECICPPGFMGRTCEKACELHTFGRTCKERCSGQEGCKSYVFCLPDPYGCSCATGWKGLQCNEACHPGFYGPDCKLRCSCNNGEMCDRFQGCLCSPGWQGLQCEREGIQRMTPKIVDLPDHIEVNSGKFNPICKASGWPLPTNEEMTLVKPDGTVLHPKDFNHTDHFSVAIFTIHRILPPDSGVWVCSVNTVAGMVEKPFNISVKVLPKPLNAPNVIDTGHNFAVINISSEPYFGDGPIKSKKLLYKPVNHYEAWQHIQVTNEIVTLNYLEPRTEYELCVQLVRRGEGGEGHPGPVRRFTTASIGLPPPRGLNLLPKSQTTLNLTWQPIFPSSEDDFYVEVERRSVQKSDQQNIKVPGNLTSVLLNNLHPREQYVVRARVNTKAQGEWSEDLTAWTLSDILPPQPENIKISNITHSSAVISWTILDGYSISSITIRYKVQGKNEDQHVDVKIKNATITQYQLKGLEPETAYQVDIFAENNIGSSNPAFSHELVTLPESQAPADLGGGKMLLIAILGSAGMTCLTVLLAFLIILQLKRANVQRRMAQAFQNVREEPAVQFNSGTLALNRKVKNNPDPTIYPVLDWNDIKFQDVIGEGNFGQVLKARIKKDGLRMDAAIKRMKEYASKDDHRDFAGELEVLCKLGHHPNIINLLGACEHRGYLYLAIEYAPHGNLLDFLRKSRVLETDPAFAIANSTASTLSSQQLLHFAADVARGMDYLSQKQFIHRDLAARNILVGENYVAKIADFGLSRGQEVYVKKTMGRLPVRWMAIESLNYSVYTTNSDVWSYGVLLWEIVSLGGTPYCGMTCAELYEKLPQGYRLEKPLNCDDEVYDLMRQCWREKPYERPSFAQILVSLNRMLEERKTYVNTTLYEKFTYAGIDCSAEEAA

rhAng-2: recombinant angiopoietin 2 protein
vascular response in CAM (CAM): dramatically decreased newly sprouting angiogenic vessels | effect on Ang1-induced Tie2 phosphorylation (Tie2): Inhibition of Tie2 phosphorylation | formation of vascular-like structures (HU-VEC-C): lost their ability to form vascular-like structures

Cc1ccc(NC(=O)c2ccc(CN3CCN(C)CC3)cc2)cc1Nc1nccc(-c2cccnc2)n1 [Imatinib]
survival versus vehicle (U-87 MG xenograft): did not significantly improve the survival

[O-][Cl+3]([O-])([O-])O [sodium perchlorate]
inhibition of NIS activity (U251 cells): complete inhibition of NIS activity

HFLIIGFMRRALCGA [PEPCH1, anti-EGFRvIII peptide, FITC-labeled]
binding to EGFRvIII-expressing cells (EGFRvIII): specific binding

Nc1nc(=O)[nH]cc1F [5-FC, 5-fluorocytosine]
IC50 ([1]; Homo sapiens, U-251, 120 h, U251MG cells expressing hyCD, 5 days): 12.4 µg/mL (≈ 0.0961 mM) | increased sensitivity of hyCD-expressing versus parental cells to 5-FC ([1]; U251MG): approximately 3 orders of magnitude | IC50 (parental U251MG cells): 3090 µg/mL (≈ 24 mM)

Clc1ccc(Nc2nnc(Cc3ccncc3)c3ccccc23)cc1 [PTK787]
survival versus vehicle (U-87 MG xenograft): did not significantly improve the survival

[O]=[188Re](=[O])(=[O])[O-] [^188ReO4, Rhenium-188 perrenate]
tissues with uptake of 188ReO4 [2]: thyroid and stomach

B1: bakers' yeast CD: cytosine deaminase previously isolated from Saccharomyces cerevisiae (protein, UniProt Q12178 1-158, looked up)
Cytosine deaminase: MVTGGMASKWDQKGMDIAYEEAALGYKEGGVPIGGCLINNKDGSVLGRGHNMRFQKGSATLHGEISTLENCGRLEGKVYKDTTLYTTLSPCDMCTGAIIMYGIPRCVVGENVNFKSKGEKYLQTRGHEVVVVDDERCKKIMKQFIDERPQDWFEDIGE
time activity is maintained in solution ([3]; 4° C., pH 5-9): at least 48 hr | time to lose half of activity ([3]; 37° C., crude preparation): 1 h
